In publication PMC8095338 (Neuro-oncology Advances, 2021):
Like-named read-outs stand apart in the source and are kept apart here.

Key:
[1] = test system: DUSP6 and FOS; test: Transcript biomarkers of MEK inhibition in tissues (RT-PCR); format: in vivo, minipig; settings: skin, sciatic nerve, optic nerve and cerebral cortex of all treated minipigs, 2 h after single oral 7.3 mg/kg
Description: (§1) WT (n = 8) and NF1 (n = 8) minipigs received a single human equivalent oral dose of 450 mg (7.3 mg/kg). Untreated WT (n = 4) and NF1 (n = 4) minipigs were also enrolled as controls. All animals were euthanized 2 h after drug administration. Tissue samples were collected from each animal at the same approximate locations and divided for analysis.
For RNA profiling, tissues were homogenized using ceramic homogenizers (Agilent 5982–9311) and a Beadblaster 24 (Benchmark D2400) for 3 cycles of 30 s each. RNA was extracted from all tissues using the RNeasy Mini kit (QIAGEN 74104) and RNA concentration and quality was measured by NanoDrop (Thermo). Analysis of transcript biomarkers of MEK inhibition was performed using the Fluidigm platform by Reverse Transcription, preamplification with pooled primers and Real Time-PCR on the Juno and BioMark using the following pig TaqMan primers (DUSP6-Ss06941845_m1; FOS -Ss03390402_m1; normalized to the average of pig housekeeping genes (B2M/Ss03391154_m1; HPRT1/Ss03388274_m1; PPIA/Ss03394782_g1; RPL13A/Ss03376908_u1; UBC/Ss03374343_g1, TFRC/Ss03391240_m1). Data were then normalized to the average of the control untreated group from matching WT or NF1 background (Log2 fold change, -ddCt).

[2] = cited from earlier work
[3] = Dose-finding study, plasma PK in wild-type minipigs; format: in vivo, minipig; settings: for Cmax: female, WT minipig, plasma (data not shown)
Description: This was conducted to determine the dose required to reach the human equivalent therapeutic exposure. Human equivalent doses of 50, 75, 300, and 600 mg were tested. Each dose was administered orally to a 5-month-old wild-type female minipig. Blood was collected immediately prior to drug administration (T = 0) and 1, 2, 6, and 24 h after drug administration.

[4] = test system: ERK phosphorylation (p-ERK); test: Tissue PD: p-ERK/ERK by capillary western (Wes); format: in vivo, minipig; settings: for inhibition at 7.3 mg/kg: Sus scrofa, po; for p-ERK Inhibition: ND = Not detected
Description: as §1
(§2) PD analysis in blood was performed as described in a previous study, with some modifications.[13] […] Samples were stimulated with phorbol 12-myristate 13-acetate (PMA) (200 nM) or phosphate-buffered saline for 10 min at 37°C within 1 h of being drawn. Red blood cells were removed using standard ammonium-chloride-potassium (ACK) lysis. Peripheral blood mononuclear cells (PBMCs) were snap-frozen as dry pellets and stored at −80°C until analysis. Protein lysates from PBMCs were prepared as described in a previous study.[13] For tissues, protein lysates were prepared by transferring ~[…] of snap frozen tissue to a 1.7-mL microfuge tube containing radioimmunoprecipitation lysis buffer with protease and phosphatase inhibitors. The samples were then homogenized using a rotor-stator homogenizer for 2–4 cycles of 20 s and centrifuged for 10 min at 4°C. Concentrations were measured using the Pierce BCA Protein assay kit (Thermo #23227), according to the manufacturer’s instructions. A capillary western blot assay was performed on a Wes system (ProteinSimple 004–600) according to the manufacturer’s instructions using a 12–230 kDa Separation Module (ProteinSimple SM-W004) and Anti-Rabbit Detection Module (ProteinSimple DM-001). Lysates were loaded at 1 mg/mL and instrument default settings were used. Primary antibodies against Phospho-p44/42 ERK1/2 (p-ERK) (Cell Signaling Technologies #4370S) and p44/42 ERK1/2 (ERK) (Cell Signaling Technologies #4695S) were used at 1:100 dilution. Peaks of the appropriate molecular weight (42/44 kilodaltons) were detected in the resulting electropherograms and chemiluminescent signal was quantified by calculating the area under the peaks. The relative intensity of p-ERK to total ERK was then calculated as a ratio (p-ERK/ERK). To discriminate low p-ERK signals from background, the peak signal-to-noise (S/N) ratio given by the software was ≥10, and the peak height/baseline ratio was ≥3.[27]

[5] = test system: ERK phosphorylation (p-ERK) in PBMCs; test: Blood PD: p-ERK in ex vivo PMA-stimulated PBMCs (capillary western); set-up: species or system minipig; settings: Sus scrofa, PBMC, all minipigs (WT and NF1), 2 to 5 h after single oral 7.3 mg/kg
Description: WT (n = 8) and NF1 (n = 8) minipigs received a single human equivalent oral dose of 450 mg (7.3 mg/kg).
as §2, with “A capillary western blot assay was performed on a Wes system (ProteinSimple 004–600) according to the manufacturer’s instructions using a 12–230 kDa Separation Module (ProteinSimple SM-W004) and Anti-Rabbit Detection Module (ProteinSimple DM-001). Lysates were loaded at 1 mg/mL and instrument default settings were used. Primary antibodies against Phospho-p44/42 ERK1/2 (p-ERK) (Cell Signaling Technologies #4370S) and p44/42 ERK1/2 (ERK) (Cell Signaling Technologies #4695S) were used at 1:100 dilution.” left out, “To discriminate low p-ERK signals from background, the peak signal-to-noise (S/N) ratio given by the software was ≥10, and the peak height/baseline ratio was ≥3.[27]” left out

[6] = cited from earlier work; for maximum tolerated dose: twice daily
[7] = test system: p-ERK; test: Immunohistochemistry for p-ERK in minipig tissues; format: in vivo
Description: Formalin-fixed paraffin-embedded minipig tissue including cerebral cortex, cross sections of optic nerve and sciatic nerve, and skin were sectioned. Immunohistochemical staining for phosphor-p44/p42 MAPK (ERK1/2) (Thr202/Tyr204) (Cell Signaling Technology Catalog #4370, Rabbit mAb, 1:100 dilution) was performed using 5 μm sections on a Thermo Fisher Scientific Autostainer 360 (Thermo Fisher Scientific). […] In the skin, epidermis was scored as no (0) or low (1) (<20 epidermal cells per 400× magnification) or high (2) (>20 epidermal cells per 400× magnification) immunoreactivity.

[8] = pediatric patients, 25 mg/m^2, plasma, median (range), ref 6
[9] = pediatric patients, 25 mg/m^2, plasma, median (range), ref 7

Q: With `Cn1cnc2c(F)c(Nc3ccc(Br)cc3Cl)c(C(=O)NOCCO)cc21` [selumetinib] as the molecule, how does the DUSP6 transcript expression [1] read?
A: downregulated

Q: What about the FOS transcript expression [1] of the same molecule?
A: downregulated

Q: What about the “AUC0→∞” value ([2]; human, in vivo, 75 mg) of the same molecule?
A: 4510 (19.2) hour × ng/mL

Q: And the “AUC0-∞ (systemic exposure)” value ([2]; human, in vivo)?
A: 4510 to 6335 ng·h/mL

Q: What about the “AUC0-∞ (systemic exposure)” value ([2]; pediatric NF1 patients) of the same molecule?
A: 2520 to 3855 ng·h/mL

Q: And the “median maximum concentration (Cmax) in plasma” value ([2]; pediatric dose 25 mg/m^2)?
A: 886 ng/mL

Q: What about the “AUC0→∞” value [2, 8] of the same molecule?
A: 2520 (2341–3280) hour × ng/mL

Q: What about the Cmax [2, 8] of the same molecule?
A: 886 (790–1200) ng/mL

Q: What about the T1/2 [2, 8] of the same molecule?
A: 6.5 (4.7–15.8) hours

Q: And the “AUC0→∞” value [2, 9]?
A: 3855 (1780–7250) hour × ng/mL

Q: And the Cmax [2, 9]?
A: 1400 (306–3570) ng/mL

Q: What about the Tmax [2, 9] of the same molecule?
A: 1.4 (1.0–4.0) hours

Q: And the “dose proportionality of selumetinib exposure” value ([3]; WT minipigs, from 75 to 300 mg human equivalent dose)?
A: dose proportional

Q: What about the Cmax ([3]; single oral 300 mg human equivalent dose) of the same molecule?
A: 1000 ng/mL

Q: What about the Cmax ([3]; single oral 600 mg human equivalent dose) of the same molecule?
A: 670 ng/mL

Q: And the inhibition at 7.3 mg/kg ([4]; 2 h, NF1 minipigs, cerebral cortex, 2 h after single oral 7.3 mg/kg, vs untreated controls, change not significant, read-out: p-ERK Inhibition)?
A: 71%

Q: What about the inhibition at 7.3 mg/kg ([4]; 2 h, NF1 minipigs, optic nerve, 2 h after single oral 7.3 mg/kg, vs untreated controls, read-out: p-ERK Inhibition) of the same molecule?
A: 60%

Q: What about the inhibition at 7.3 mg/kg ([4]; 2 h, NF1 minipigs, sciatic nerve, 2 h after single oral 7.3 mg/kg, vs untreated controls, read-out: p-ERK Inhibition) of the same molecule?
A: 60%

Q: And the inhibition at 7.3 mg/kg ([4]; 2 h, WT minipigs, sciatic nerve, 2 h after single oral 7.3 mg/kg, vs untreated controls, read-out: p-ERK Inhibition)?
A: 67%

Q: And the inhibition at 7.3 mg/kg ([4]; 2 h, all minipigs (WT and NF1), 2 h after single oral 7.3 mg/kg, read-out: mean inhibition of p-ERK in sciatic nerve)?
A: 64%

Q: What about the inhibition at 7.3 mg/kg ([4]; 2 h, all minipigs (WT and NF1), 2 h after single oral 7.3 mg/kg, read-out: mean inhibition of p-ERK in skin) of the same molecule?
A: 95%

Q: And the “p-ERK Inhibition” value ([4]; WT minipigs, cerebral cortex (subcortical white matter), 2 h after single oral 7.3 mg/kg, vs untreated controls)?
A: not observed

Q: What about the “p-ERK Inhibition” value ([4]; WT minipigs, optic nerve, 2 h after single oral 7.3 mg/kg, vs untreated controls) of the same molecule?
A: not observed

Q: What about the “mean inhibition of p-ERK in skin” value ([4]; all minipigs (WT and NF1), 2 h after single oral 7.3 mg/kg, 7.3 mg/kg) of the same molecule?
A: 94%

Q: What about the “p-ERK level in skin after selumetinib” value ([4]; all minipigs, single oral 7.3 mg/kg, 2 h, compared to untreated minipigs) of the same molecule?
A: nearly undetectable levels

Q: And the inhibition at 7.3 mg/kg ([5]; read-out: maximal inhibition of p-ERK in PBMCs)?
A: ≤ 90%

Q: And the inhibition at 7.3 mg/kg ([5]; read-out: mean inhibition of p-ERK in PBMCs)?
A: 60%

Q: What about the maximum tolerated dose ([6]; adult patients with advanced solid malignancy) of the same molecule?
A: 75 mg

Q: And the maximum tolerated dose ([6]; pediatric patients with plexiform neurofibroma or low-grade glioma)?
A: 25 mg/m^2

Q: And the confirmed partial response ([6]; pediatric patients, 25 mg/m^2 twice daily)?
A: 70 % of pediatric patients

Q: What about the “p-ERK by IHC in glial cells” value ([7]; NF1 minipig tissues, treated vs untreated) of the same molecule?
A: reduction in ERK phosphorylation

Q: What about the “treated NF1 animals without reduction in ERK phosphorylation by IHC” value ([7]; cerebral white matter tracts, NF1 minipigs) of the same molecule?
A: 4 of 8
